Structures are written as SMILES. Several values for one entry are separate records, joined by “and”; a condition that tells them apart may be missing. Equal entries are not always repeated. Where two headings read alike, the source gives them in different places.

One test deals with late blight fungus. In kind it is in vivo, tomato (variety: Ponderosa). The conditions noted are these: for synergistic effect in mixed use with Compound No. 1: within the same concentration range as the preceding table.
In test [1] the test system is downy mildew. The test is described as follows: Cucumber downy mildew treating effect test (Test Example 1, Compound No. 1 with other fungicides). In kind it is in vivo, cucumber (variety: Sagami Hanjiro). How it is done: A cucumber (variety: Sagami Hanjiro) was cultivated in a plastic pot of 7.5 cm in diameter, and when it reached the bifoliate stage, a spore suspension of downy mildew was spray-inoculated thereto. Each of the liquids to be tested was sprayed thereto 17 hours thereafter using a spray gun at a ratio of 5 ml per seedling. In addition, the above-described Compound No. 1 liquid was also sprayed in the same manner. After keeping in a constant temperature chamber at 22 to 24° C. for 6 days, area of the lesion on the first leaf was inspected to calculate lesion area ratio (%), with the results shown in Table 3 and Table 4. In addition, each of the theoretical values of the infection ratio calculated based on the Colby's formula is also shown by the parentheses in Table 3 and Table 4.

Test [2] concerns downy mildew. The test is described as follows: Cucumber downy mildew treating effect test (Reference Example, Compound No. 1 with spreaders). In kind it is in vivo, cucumber (variety: Sagami Hanjiro). The following applies: no mixed use of spreader. How it is done:
An effect reinforcing component was dispersed in water to a concentration of from 1,000 times to 10,000 times, and then the above-described Compound No. […] In this case, the spreaders shown in Table 1 and Table 2 were used as the effect reinforcing components. In addition, for the sake of comparison, a predetermined concentration (63 ppm or 16 ppm) of Compound No. 1 liquid containing no effect reinforcing component was prepared in the same manner as the above-described water dispersion.
A cucumber (variety: Sagami Hanjiro) was cultivated in a plastic pot of 7.5 cm in diameter, and when it reached the bifoliate stage, a spore suspension of downy mildew was spray-inoculated thereto. Each of the water dispersions to be tested was sprayed thereto 17 hours thereafter using a spray gun at a ratio of 5 ml per seedling. In addition, the above-described Compound No. 1 liquid was also sprayed in the same manner. After keeping in a constant temperature chamber at 22 to 24° C. for 6 days, area of the lesion on the first leaf was inspected to calculate lesion area ratio (%), with the results shown in Table 1 and Table 2. In addition, each of the theoretical values of the infection ratio calculated based on the Colby's formula was also shown by the parentheses in Table 1 and Table 2. In this connection, results similar to those which are shown in Table 1 and Table 2 are obtained within the same concentration range when a liquid comprising the Compound No. 1 and at least one selected from the group consisting of Dimethomorph, Chlorothalonil, a copper compound, Iprovalicarb, Zoxamide, phosphorous acid or a salt thereof, Fluazinam, Cyazofamid, Flumorph, Benthiavalicarb-isopropyl, Ethaboxam, Methalaxyl-M and Benalaxyl-M was used instead of the Compound No. 1 liquid.

[3] abbreviates: other fungicide alone 25 g/ha, 300 liters per hectare.
Setting [4] is: other fungicide alone 100 g/ha, 300 liters per hectare.
[5] abbreviates: other fungicide alone 250 g/ha, 300 liters per hectare.
Where [6] appears, read: other fungicide alone 250 ppm (Compound No. 1 0 ppm).
Where [7] appears, read: other fungicide alone 200 ppm (Compound No. 1 0 ppm).

In the case of `[Cl-].[Cu+2].[Cu+2].[OH-].[OH-].[OH-]` [Basic copper chloride, basic copper chloride], the lesion area ratio was 100% in the test on late blight fungus (other fungicide alone 500 ppm, sprayed at 10 ml per seedling); 100% in the test on late blight fungus (other fungicide alone 1,000 ppm, sprayed at 10 ml per seedling); 100% in the test on downy mildew [1] (other fungicide alone 1,000 ppm (Compound No. 1 0 ppm)).

On to `COC(=O)[C@@H](C)N(C(=O)Cc1ccccc1)c1c(C)cccc1C` [Benalaxyl-M], for which the lesion area ratio in the test with late blight fungus (setting [3]) is 50.0%; with late blight fungus (setting [4]), 25.0%; with late blight fungus (setting [5]) it was 6.25%.

With `CC(C)OC(=O)N[C@H](C(=O)N[C@H](C)c1nc2ccc(F)cc2s1)C(C)C` [Benthiavalicarb-isopropyl], the “synergistic effect in mixed use with Compound No. 1” value with late blight fungus was “Synergistic effect can also be obtained”.

As for `N#Cc1c(Cl)c(Cl)c(Cl)c(C#N)c1Cl` [Chlorothalonil], the lesion area ratio in the test with late blight fungus (other fungicide alone 13 ppm, sprayed at 10 ml per seedling) was found to be 100%; with late blight fungus (other fungicide alone 25 ppm, sprayed at 10 ml per seedling), 17%; with late blight fungus (setting [4]) it was 18.8%; with late blight fungus (setting [5]), 25.0%; with downy mildew [1] (other fungicide alone 500 ppm (Compound No. 1 0 ppm)), 100%.

Turning to `Cc1c(Br)c2ccc(F)cc2n1S(=O)(=O)c1ncn(S(=O)(=O)N(C)C)n1` [Compound No. 1, 1-(N,N-dimethylsulfamoyl)-3-(3-bromo-6-fluoro-2-methylindol-1-yl)sulfonyl-1,2,4-triazole], the lesion area ratio is 83% in the test on late blight fungus (Compound No. 1 1 ppm, no mixed use of other fungicide, sprayed at 10 ml per seedling); 62.5% and 37.5% with late blight fungus (Compound No. 1 alone 25 g/ha, 300 liters per hectare); 31.3% and 25.0% and 37.5% with late blight fungus (Compound No. 1 alone 250 g/ha, 300 liters per hectare); 30% in the test with downy mildew [2] (Compound No. 1 4 ppm); 60% with downy mildew [2] (Compound No. 1 16 ppm); 40% with downy mildew [2] (Compound No. 1 63 ppm). For the same molecule, the lesion area ratio with downy mildew [1] (Compound No. 1 4 ppm, no mixed use of other fungicide) is given as 30%; in the test with downy mildew [1] (Compound No. 1 16 ppm, no mixed use of other fungicide), 60%; in the test with downy mildew [1] (Compound No. 1 63 ppm, no mixed use of other fungicide), 40%.

Take `[Cu+2].[OH-].[OH-]` [Cupric hydroxide, cupric hydroxide]: the lesion area ratio with late blight fungus (other fungicide alone 200 g/ha, 300 liters per hectare) amounted to 50.0%; with late blight fungus (other fungicide alone 800 g/ha, 300 liters per hectare) it was 43.3%; in the test on late blight fungus (other fungicide alone 2000 g/ha, 300 liters per hectare), 43.8%.

As to `Cc1ccc(-c2c(Cl)nc(C#N)n2S(=O)(=O)N(C)C)cc1` [Cyazofamid], the lesion area ratio with late blight fungus (other fungicide alone 10 g/ha, 300 liters per hectare) worked out at 25.0%; with late blight fungus (other fungicide alone 40 g/ha, 300 liters per hectare), 18.8%.

For the molecule `COc1ccc(C(=CC(=O)N2CCOCC2)c2ccc(Cl)cc2)cc1OC` [Dimethomorph], the lesion area ratio in the test on late blight fungus (setting [3]) came to 87.5%; in the test with late blight fungus (setting [4]) it was 75.0%; with late blight fungus (setting [5]), 62.5%; with downy mildew [1] (setting [6]), 100%; in the test on downy mildew [1] (other fungicide alone 350 ppm (Compound No. 1 0 ppm)) it was 100%.

For the molecule `CCNc1nc(CC)c(C(=O)NC(C#N)c2cccs2)s1` (centres unmarked) [Ethaboxam], the lesion area ratio is 6.25% in the test with late blight fungus (setting [3]), 6.25% in the test on late blight fungus (setting [4]) and 30% with downy mildew [1] (setting [7]).

Consider `O=[N+]([O-])c1cc(C(F)(F)F)c(Cl)c([N+](=O)[O-])c1Nc1ncc(C(F)(F)F)cc1Cl` [Fluazinam], for which the lesion area ratio with late blight fungus (setting [4]) and with late blight fungus (setting [5]) was 37.5% throughout.

Take `COc1ccc(/C(=C\C(=O)N2CCOCC2)c2ccc(F)cc2)cc1OC` [Flumorph]: the lesion area ratio is 31.3% in the test with late blight fungus (setting [4]) and 12.5% in the test with late blight fungus (setting [5]).

`Cc1ccc(C(C)NC(=O)[C@@H](NC(=O)OC(C)C)C(C)C)cc1` (some centres unmarked) [Iprovalicarb]: the lesion area ratio amounted to 25.0% in the test with late blight fungus (setting [3]), 6.25% with late blight fungus (setting [4]), 6.25% in the test with late blight fungus (setting [5]) and 100% in the test with downy mildew [1] (setting [6]).

Take `COCC(=O)N(c1c(C)cccc1C)[C@H](C)C(=O)OC` [Metalaxyl-M]: the “synergistic effect in mixed use with Compound No. 1” value in the test on late blight fungus is “Synergistic effect can also be obtained”.

On to `O=[PH]([O-])[O-].[K+].[K+]` [Potassium phosphite, potassium phosphite (K2HPO3)], for which, in the test on downy mildew [1] (setting [6]), the lesion area ratio came out at 100%.

Regarding `CCCOC(=O)NCCCN(C)C` [Propamocarb], the lesion area ratio is reported as 87.5% in the test on late blight fungus (setting [4]); 75.0% with late blight fungus (other fungicide alone 400 g/ha, 300 liters per hectare); 60% with downy mildew [1] (other fungicide alone 1,600 ppm (Compound No. 1 0 ppm)).

For the molecule `O=[PH]([O-])[O-].[Na+].[Na+]` [Sodium phosphite, sodium phosphite (Na2HPO3)], the lesion area ratio is 75.0% with late blight fungus (other fungicide alone 500 g/ha, 300 liters per hectare); 75.0% in the test on late blight fungus (other fungicide alone 1000 g/ha, 300 liters per hectare); 50.0% in the test on late blight fungus (other fungicide alone 1500 g/ha, 300 liters per hectare).

As to `CCC(C)(NC(=O)c1cc(Cl)c(C)c(Cl)c1)C(=O)CCl` (centres unmarked) [Zoxamide], the lesion area ratio in the test with late blight fungus (setting [3]) is recorded as 43.8%; with late blight fungus (setting [4]) it was 50.0%; in the test with downy mildew [1] (setting [7]), 100%.

Values taken from patent publication US8802708B2 (priority 2004, dated 2014).
